In brackets after ≈: the same amount, converted by molar mass.
How the values were obtained:
[1] = tested on: Trichophyton mentagrophytes SM-110; test: Antifungal activity evaluation test: minimum inhibitory concentration (MIC), broth dilution by reference to CLSI M38-A2; type: cell-based; details: SM110, read-out: MIC (T. menta.)
Outline: (§1)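 Broth microdilution after CLSI M38-A2: 2-fold DMSO dilution series in MOPS-buffered RPMI 1640 pH 7.0, inoculum 2×10^3 cells/mL final. Incubated 35° C for 4 days; MIC (μg/mL) is lowest concentration giving visually ≥80% growth inhibition versus growth control.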

[2] = tested on: Trichophyton rubrum KD-1130; test: as above; type: cell-based; details: KD1130, read-out: MIC (T. rubrum)
Outline: as §1

Question: How did the MIC [1] turn out when `COc1ccncc1-c1cccnc1Oc1ccc(C)cc1` [I-252, 4′-methoxy-2-(p-tolyloxy)-3,3′-bipyridine] was run?
Answer: The MIC was 0.2 to 0.78 µg/mL (≈ 0.684 to 2.67 µM).

Question: What about the MIC [2] of the same molecule?
Answer: Its MIC is 0.2 to 0.78 µg/mL (≈ 0.684 to 2.67 µM).

Question: Which results are given for `CCc1ccc(Oc2ncccc2-c2cnccc2OC)cc1` [I-253, 2-(4-ethylphenoxy)-4′-methoxy-3,3′-bipyridine]?
Answer: MIC [1]: ≤ 0.1 µg/mL; MIC [2]: ≤ 0.1 µg/mL

Question: What does the source list for `CCCc1ccc(Oc2ncccc2-c2cnccc2OC)cc1` [I-254, 4′-methoxy-2-(4-propylphenoxy)-3,3′-bipyridine]?
Answer: MIC [1]: ≤ 0.1 µg/mL; MIC [2]: ≤ 0.1 µg/mL

Question: How did the MIC [1] turn out when `COc1ccncc1-c1cccnc1Oc1ccc(C(C)C)cc1` [I-255, 2-(4-isopropylphenoxy)-4′-methoxy-3,3′-bipyridine] was run?
Answer: Its MIC is no more than 0.1 µg/mL.

Question: What about the MIC [2] of the same molecule?
Answer: The MIC was no more than 0.1 µg/mL.

Question: What does the source list for `CCC(C)c1ccc(Oc2ncccc2-c2cnccc2OC)cc1` (centres unmarked) [I-256, 2-[4-(sec-butyl)phenoxy]-4′-methoxy-3,3′-bipyridine]?
Answer: MIC [1]: ≤ 0.1 µg/mL; MIC [2]: ≤ 0.1 µg/mL

Question: What does the source list for `C=Cc1ccc(Oc2ncccc2-c2cnccc2OC)cc1` [I-258, 4′-methoxy-2-(4-vinylphenoxy)-3,3′-bipyridine]?
Answer: MIC [1]: ≤ 0.1 µg/mL; MIC [2]: ≤ 0.1 µg/mL

Question: For `COc1ccncc1-c1cccnc1Oc1ccc(C#C[Si](C)(C)C)cc1` [I-259, 4′-methoxy-2-{4-[(trimethylsilyl)ethynyl]phenoxy}-3,3′-bipyridine], which MIC [1] is on record?
Answer: The MIC was 0.2 to 0.78 µg/mL (≈ 0.534 to 2.08 µM).

Question: What about the MIC [2] of the same molecule?
Answer: Its MIC is 0.2 to 0.78 µg/mL (≈ 0.534 to 2.08 µM).

Question: Which results are given for `C#Cc1ccc(Oc2ncccc2-c2cnccc2OC)cc1` [I-260, 2-(4-ethynylphenoxy)-4′-methoxy-3,3′-bipyridine]?
Answer: MIC [1]: 0.2 to 0.78 µg/mL (≈ 0.662 to 2.58 µM); MIC [2]: ≤ 0.1 µg/mL

Question: `COc1ccncc1-c1cccnc1Oc1ccc(C2CC2)cc1` [I-261, 2-(4-cyclopropylphenoxy)-4′-methoxy-3,3′-bipyridine] was tested. Which MIC [1] did it give?
Answer: The MIC was no more than 0.1 µg/mL.

Question: What about the MIC [2] of the same molecule?
Answer: Its MIC is no more than 0.1 µg/mL.

Question: What does the source list for `COc1ccncc1-c1cccnc1Oc1ccc(C)c(C)c1` [I-262, 2-(3,4-dimethylphenoxy)-4′-methoxy-3,3′-bipyridine]?
Answer: MIC [1]: 0.2 to 0.78 µg/mL (≈ 0.653 to 2.55 µM); MIC [2]: 0.2 to 0.78 µg/mL (≈ 0.653 to 2.55 µM)

Question: Which results are given for `CCc1ccc(Oc2ncccc2-c2cnccc2OC)cc1C` [I-263, 2-(4-ethyl-3-methylphenoxy)-4′-methoxy-3,3′-bipyridine]?
Answer: MIC [1]: ≤ 0.1 µg/mL; MIC [2]: ≤ 0.1 µg/mL

Question: For `CCc1cc(Oc2ncccc2-c2cnccc2OC)ccc1C` [I-264, 2-(3-ethyl-4-methylphenoxy)-4′-methoxy-3,3′-bipyridine], which MIC [1] is on record?
Answer: Its MIC is no more than 0.1 µg/mL.

Question: And the MIC [2]?
Answer: The MIC was no more than 0.1 µg/mL.

Question: What does the source list for `CCc1cccc(Oc2ncccc2-c2cnccc2OC)c1` [I-265, 2-(3-ethylphenoxy)-4′-methoxy-3,3′-bipyridine]?
Answer: MIC [1]: 0.2 to 0.78 µg/mL (≈ 0.653 to 2.55 µM); MIC [2]: 0.2 to 0.78 µg/mL (≈ 0.653 to 2.55 µM)

Question: With `COc1ccncc1-c1cccnc1Oc1ccc2c(c1)CCC2` [I-266, 2-[(2,3-dihydro-1H-inden-5-yl)oxy]-4′-methoxy-3,3′-bipyridine] as the molecule, how does the MIC [1] read?
Answer: The MIC was no more than 0.1 µg/mL.

Question: What about the MIC [2] of the same molecule?
Answer: The MIC was no more than 0.1 µg/mL.

Question: What does the source list for `COc1ccncc1-c1cccnc1Oc1ccc2c(c1)CCCC2` [I-267, 4′-methoxy-[(5,6,7,8-tetrahydronaphthalen-2-yl)oxy]-3,3′-bipyridine]?
Answer: MIC [1]: ≤ 0.1 µg/mL; MIC [2]: ≤ 0.1 µg/mL

Question: Which results are given for `COc1ccccc1-c1cccnc1Oc1ccc2c(c1)CCCC2` [I-268, 3-(2-methoxyphenyl)-2-[(5,6,7,8-tetrahydronaphthalen-2-yl)oxy]pyridine]?
Answer: MIC [1]: ≤ 0.1 µg/mL; MIC [2]: ≤ 0.1 µg/mL

Question: With `COc1ncccc1-c1cccnc1Oc1ccc2c(c1)CCCC2` [I-269, 2-methoxy-2′-[(5,6,7,8-tetrahydronaphthalen-2-yl)oxy]-3,3′-bipyridine] as the molecule, how does the MIC [1] read?
Answer: Its MIC is no more than 0.1 µg/mL.

Question: What about the MIC [2] of the same molecule?
Answer: Its MIC is no more than 0.1 µg/mL.

Question: `COc1ncccc1-c1cccnc1Oc1ccc2c(c1)CCC2` [I-270, 2-[(2,3-dihydro-1H-inden-5-yl)oxy]-2′-methoxy-3,3′-bipyridine] was tested. Which MIC [1] did it give?
Answer: Its MIC is no more than 0.1 µg/mL.

Question: And the MIC [2]?
Answer: Its MIC is no more than 0.1 µg/mL.

Question: How did the MIC [1] turn out when `COc1ncncc1-c1cccnc1Oc1ccc2c(c1)CCCC2` [I-271, 4′-methoxy-5-{2-[(5,6,7,8-tetrahydronaphthalen-2-yl)oxy]pyridin-3-yl}pyrimidine] was run?
Answer: The MIC was no more than 0.1 µg/mL.

Question: And the MIC [2]?
Answer: The MIC was no more than 0.1 µg/mL.

Question: `COc1ncccc1-c1cccnc1Oc1ccc2c(c1)CCCC2=O` [I-272, 6-{[2′-methoxy-(3,3-bipyridin)-2-yl]oxy}-3,4-dihydronaphthalen-1(2H)-one] was tested. Which MIC [1] did it give?
Answer: The MIC was no more than 0.1 µg/mL.

Question: What about the MIC [2] of the same molecule?
Answer: The MIC was no more than 0.1 µg/mL.

Question: `COc1ccccc1-c1cccnc1Oc1ccc2c(c1)C(=O)CCC2` [I-273, 7-{[3-(2-methoxyphenyl)pyridin-2-yl]oxy}-3,4-dihydronaphthalen-1(2H)-one] was tested. Which MIC [1] did it give?
Answer: Its MIC is no more than 0.1 µg/mL.

Question: What about the MIC [2] of the same molecule?
Answer: The MIC was no more than 0.1 µg/mL.

Question: Which results are given for `CCOCCc1ccc(Oc2ncccc2-c2cnccc2OC)cc1` [I-274, 2-[4-(2-ethoxyethyl)phenoxy]-4′-methoxy-3,3′-bipyridine]?
Answer: MIC [1]: 0.2 to 0.78 µg/mL (≈ 0.571 to 2.23 µM); MIC [2]: 0.2 to 0.78 µg/mL (≈ 0.571 to 2.23 µM)

Question: Which MIC [1] does the source give for `COCC(C)(C)c1ccc(Oc2ncccc2-c2cnccc2OC)cc1` [I-275, 4′-methoxy-2-[4-(1-methoxy-2-methylpropan-2-yl)phenoxy]-3,3′-bipyridine] here?
Answer: Its MIC is 0.2 to 0.78 µg/mL (≈ 0.549 to 2.14 µM).

Question: And the MIC [2]?
Answer: Its MIC is 0.2 to 0.78 µg/mL (≈ 0.549 to 2.14 µM).

Question: Which MIC [1] does the source give for `COCC1(c2ccc(Oc3ncccc3-c3cnccc3OC)cc2)CC1` [I-276, 4′-methoxy-2-{4-[1-(methoxymethyl)cyclopropyl]phenoxy}-3,3′-bipyridine] here?
Answer: The MIC was 0.2 to 0.78 µg/mL (≈ 0.552 to 2.15 µM).

Question: What about the MIC [2] of the same molecule?
Answer: Its MIC is 0.2 to 0.78 µg/mL (≈ 0.552 to 2.15 µM).

Question: What does the source list for `COc1ncccc1-c1cccnc1Oc1ccc(OCc2ccccc2)cc1` [I-277, 2-[4-(benzyloxy)phenoxy]-2′-methoxy-3,3′-bipyridine]?
Answer: MIC [1]: ≤ 0.1 µg/mL; MIC [2]: ≤ 0.1 µg/mL
